Laboratory results published in patent publication US9309242B2, “Substituted pyrido[2,3-b]pyrazines as FGFR kinase inhibitors” (priority 2011, dated 2016).
Structures can show the parent of a compound that is named as a salt. Where two headings read alike, the source gives them in different places.

Assays:
[1] = test system: Ba/F3-FGFR1-transfected cells; assay: Ba/F3-FGFR1 (plus IL3) cellular proliferation assay, counterscreen with 10 ng/ml murine IL3; format: cell-based; conditions: for IC50: read-out: BAF3-FGFR1 (PLUS IL3) pIC50 (converted)
Summary of the method: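 Proliferation read-out: resazurin-based Alamar Blue fluorescence (540/590 nm) after 4 h, following 24 h compound treatment of 20000 Ba/F3-FGFR1 cells per well in 10% FBS RPMI at 37° C. IL3 counterscreen used the same protocol plus 10 ng/ml murine IL3.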

[2] = target: T1, Ba/F3-FGFR3-transfected cells (Homo sapiens, UniProt P22607); assay: Ba/F3-FGFR3 (minus IL3) cellular proliferation assay, Alamar Blue; format: cell-based
T1 construct: BAF3-FGFR3 (MIN IL3) pIC50; other: minus IL3
Summary of the method: (§1)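 With or without 10 ng/ml murine IL3, FGFR3-dependent Ba/F3 cells were treated 24 h with compound, then viability was gauged by Alamar Blue fluorescence after 4 h (ex 540/em 590 nm).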

[3] = test system: Ba/F3-FGFR3-transfected cells; assay: Ba/F3-FGFR3 (plus IL3) cellular proliferation assay, counterscreen with 10 ng/ml murine IL3; format: cell-based; conditions: for IC50: read-out: BAF3-FGFR3 (PLUS IL3) pIC50 (converted)
Summary of the method: as §1

KDR (h) = KDR (h) (Homo sapiens, UniProt P35968); assay: KDR (VEGFR2) (enzymatic assay), TR-FRET; format: biochemical; conditions: read-out: VEGFR 2 (KDR) pIC50 (converted)
Summary of the method: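 3 μM ATP, 500 nM Btn-Flt3 substrate, 150 ng/ml kinase; HEPES pH 7.5 with MnCl2, DTT, vanadate, Triton; 1% DMSO. 120 min RT. Stop: EDTA + Eu-anti-P-Tyr + SA-XL-665, 60 min RT. Readout TR-FRET ex340/em620, 655 nm, RFU.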

FGFR4 (h) = FGFR4 (h) (Homo sapiens, UniProt P22455); assay: FGFR4 (enzymatic assay), TR-FRET; format: biochemical; conditions: FGFR 4 pIC50, enzymatic assay
FGFR2 (h) = FGFR2 (h) (Homo sapiens, UniProt P21802); assay: FGFR2 (enzymatic assay), TR-FRET; format: biochemical; conditions: enzymatic assay, read-out: FGFR 2 pIC50 (converted)
Summary of the method: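 hFGFR2 150 ng/ml; Btn-Flt3 500 nM; ATP 0.4 μM; 50 mM HEPES pH 7.5, 6 mM MnCl2, 1 mM DTT, 0.1 mM Na3VO4, 0.01% Triton-X-100; 1% DMSO final.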

FGFR1 (h) = FGFR1 (h) (Homo sapiens, UniProt P11362); assay: FGFR1 (enzymatic assay), TR-FRET; format: biochemical; conditions: read-out: FGFR 1 pIC50 (converted)
FGFR3 (h) = FGFR3 (h) (Homo sapiens, UniProt P22607); assay: FGFR3 (enzymatic assay), TR-FRET; format: biochemical; conditions: read-out: FGFR 3 pIC50 (converted)
Description: Time-Resolved Fluorescence Resonance Energy Transfer (TR-FRET) signal (ex340 nm.

[4] = target: T2, Ba/F3-KDR-transfected cells (Homo sapiens, UniProt P35968); assay: Ba/F3-KDR (minus IL3) cellular proliferation assay, Alamar Blue; format: cell-based
T2 construct: BAF3-KDR (MIN IL3) pIC50; other: minus IL3
Summary of the method: (§2)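 Read-out: resazurin-based Alamar Blue fluorescence (ex. 540, em. 590 nm) after 4 h. Before that, cells were incubated with compound for 24 h at 37° C. The counterscreen ran identically but with IL3 supplemented.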

[5] = target: T3, Ba/F3-FGFR1-transfected cells (Homo sapiens, UniProt P11362); assay: Ba/F3-FGFR1 (minus IL3) cellular proliferation assay, Alamar Blue; format: cell-based
T3 construct: BAF3-FGFR1 (MIN IL3) pIC50; other: minus IL3
Summary of the method: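 Viability of transfected Ba/F3-FGFR1 cells (20000 per well, RPMI-1640 with 10% FBS and 2 mM L-glutamine) was scored by resazurin-based Alamar Blue reduction over 4 h, after 24 h treatment with compound at 37 °C under 5% CO2.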

[6] = test system: Ba/F3-KDR-transfected cells; assay: Ba/F3-KDR (plus IL3) cellular proliferation assay, counterscreen with 10 ng/ml murine IL3; format: cell-based; conditions: for IC50: read-out: BAF3-KDR (PLUS IL3) pIC50 (converted)
Summary of the method: as §2

[7] = target: Ba/F3-FGFR4-transfected cells (Homo sapiens, UniProt P22455); assay: Ba/F3-FGFR4 cellular proliferation assay, Alamar Blue; format: cell-based
Summary of the method: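 Fluorescence read-out (ex. 540 nm, em. 590 nm) of resazurin-based Alamar Blue after 4 h, following 24 h compound exposure of Ba/F3-FGFR4-transfected cells (20000/well) at 37° C, 5% CO2.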

[8] = plus IL3 (10 ng/ml murine IL3, counterscreen)
[9] = average values if tested multiple times

Sequence of FGFR2 (h) (P21802 22-821): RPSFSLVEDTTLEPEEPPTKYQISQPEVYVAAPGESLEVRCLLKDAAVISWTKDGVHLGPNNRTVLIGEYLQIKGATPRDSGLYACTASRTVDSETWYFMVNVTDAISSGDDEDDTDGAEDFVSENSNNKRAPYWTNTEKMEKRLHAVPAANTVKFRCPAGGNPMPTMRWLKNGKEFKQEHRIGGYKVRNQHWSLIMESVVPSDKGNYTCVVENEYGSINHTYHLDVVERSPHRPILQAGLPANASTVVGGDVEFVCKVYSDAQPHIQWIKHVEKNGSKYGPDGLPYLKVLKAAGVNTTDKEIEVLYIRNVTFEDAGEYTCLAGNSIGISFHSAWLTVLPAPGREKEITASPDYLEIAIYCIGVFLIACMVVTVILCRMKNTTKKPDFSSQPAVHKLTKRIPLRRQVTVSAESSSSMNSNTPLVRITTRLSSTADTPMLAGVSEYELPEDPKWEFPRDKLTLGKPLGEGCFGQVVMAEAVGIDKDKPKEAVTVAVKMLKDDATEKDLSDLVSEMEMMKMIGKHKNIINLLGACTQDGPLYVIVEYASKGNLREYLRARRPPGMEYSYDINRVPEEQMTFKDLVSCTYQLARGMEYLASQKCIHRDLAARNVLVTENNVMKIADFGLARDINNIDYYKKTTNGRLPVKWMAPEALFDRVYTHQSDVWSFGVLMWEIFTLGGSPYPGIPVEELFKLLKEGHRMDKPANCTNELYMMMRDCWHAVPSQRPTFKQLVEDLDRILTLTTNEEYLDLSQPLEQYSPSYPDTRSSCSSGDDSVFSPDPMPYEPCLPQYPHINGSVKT
T2 sequence (P35968 whole entry, change not shown): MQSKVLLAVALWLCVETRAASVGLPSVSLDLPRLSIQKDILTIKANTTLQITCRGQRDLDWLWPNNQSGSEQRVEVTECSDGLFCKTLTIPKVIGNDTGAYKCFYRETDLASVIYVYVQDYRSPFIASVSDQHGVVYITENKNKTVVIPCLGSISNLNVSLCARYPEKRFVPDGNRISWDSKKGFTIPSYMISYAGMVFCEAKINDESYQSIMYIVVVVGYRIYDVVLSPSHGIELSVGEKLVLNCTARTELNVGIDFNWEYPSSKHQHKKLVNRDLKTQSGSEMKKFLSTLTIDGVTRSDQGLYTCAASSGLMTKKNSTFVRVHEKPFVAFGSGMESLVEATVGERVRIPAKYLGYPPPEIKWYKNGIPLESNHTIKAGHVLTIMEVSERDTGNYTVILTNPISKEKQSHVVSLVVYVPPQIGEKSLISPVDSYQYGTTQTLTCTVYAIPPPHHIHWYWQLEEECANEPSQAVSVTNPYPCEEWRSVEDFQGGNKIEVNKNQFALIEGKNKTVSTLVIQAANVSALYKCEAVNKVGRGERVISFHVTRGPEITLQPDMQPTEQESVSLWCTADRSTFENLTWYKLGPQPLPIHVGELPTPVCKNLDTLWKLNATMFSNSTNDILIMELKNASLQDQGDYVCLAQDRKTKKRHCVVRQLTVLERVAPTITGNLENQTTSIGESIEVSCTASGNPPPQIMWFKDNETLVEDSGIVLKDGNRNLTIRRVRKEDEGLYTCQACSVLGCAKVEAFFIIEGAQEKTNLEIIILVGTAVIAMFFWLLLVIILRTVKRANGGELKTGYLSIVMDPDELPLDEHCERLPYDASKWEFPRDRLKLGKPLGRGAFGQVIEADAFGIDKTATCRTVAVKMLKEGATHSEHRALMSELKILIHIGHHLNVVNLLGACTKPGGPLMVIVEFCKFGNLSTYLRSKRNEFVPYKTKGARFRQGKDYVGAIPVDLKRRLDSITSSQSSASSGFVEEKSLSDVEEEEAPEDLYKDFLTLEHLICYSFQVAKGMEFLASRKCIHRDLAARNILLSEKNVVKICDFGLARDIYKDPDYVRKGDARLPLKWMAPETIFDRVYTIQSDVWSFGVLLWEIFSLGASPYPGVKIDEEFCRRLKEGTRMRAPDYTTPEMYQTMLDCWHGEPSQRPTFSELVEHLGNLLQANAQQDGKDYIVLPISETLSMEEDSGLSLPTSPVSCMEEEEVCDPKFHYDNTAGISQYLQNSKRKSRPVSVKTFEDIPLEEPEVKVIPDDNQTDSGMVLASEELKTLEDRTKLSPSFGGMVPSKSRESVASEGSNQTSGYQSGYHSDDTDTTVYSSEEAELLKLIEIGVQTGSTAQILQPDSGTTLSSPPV
Sequence of KDR (h) (P35968 20-1356): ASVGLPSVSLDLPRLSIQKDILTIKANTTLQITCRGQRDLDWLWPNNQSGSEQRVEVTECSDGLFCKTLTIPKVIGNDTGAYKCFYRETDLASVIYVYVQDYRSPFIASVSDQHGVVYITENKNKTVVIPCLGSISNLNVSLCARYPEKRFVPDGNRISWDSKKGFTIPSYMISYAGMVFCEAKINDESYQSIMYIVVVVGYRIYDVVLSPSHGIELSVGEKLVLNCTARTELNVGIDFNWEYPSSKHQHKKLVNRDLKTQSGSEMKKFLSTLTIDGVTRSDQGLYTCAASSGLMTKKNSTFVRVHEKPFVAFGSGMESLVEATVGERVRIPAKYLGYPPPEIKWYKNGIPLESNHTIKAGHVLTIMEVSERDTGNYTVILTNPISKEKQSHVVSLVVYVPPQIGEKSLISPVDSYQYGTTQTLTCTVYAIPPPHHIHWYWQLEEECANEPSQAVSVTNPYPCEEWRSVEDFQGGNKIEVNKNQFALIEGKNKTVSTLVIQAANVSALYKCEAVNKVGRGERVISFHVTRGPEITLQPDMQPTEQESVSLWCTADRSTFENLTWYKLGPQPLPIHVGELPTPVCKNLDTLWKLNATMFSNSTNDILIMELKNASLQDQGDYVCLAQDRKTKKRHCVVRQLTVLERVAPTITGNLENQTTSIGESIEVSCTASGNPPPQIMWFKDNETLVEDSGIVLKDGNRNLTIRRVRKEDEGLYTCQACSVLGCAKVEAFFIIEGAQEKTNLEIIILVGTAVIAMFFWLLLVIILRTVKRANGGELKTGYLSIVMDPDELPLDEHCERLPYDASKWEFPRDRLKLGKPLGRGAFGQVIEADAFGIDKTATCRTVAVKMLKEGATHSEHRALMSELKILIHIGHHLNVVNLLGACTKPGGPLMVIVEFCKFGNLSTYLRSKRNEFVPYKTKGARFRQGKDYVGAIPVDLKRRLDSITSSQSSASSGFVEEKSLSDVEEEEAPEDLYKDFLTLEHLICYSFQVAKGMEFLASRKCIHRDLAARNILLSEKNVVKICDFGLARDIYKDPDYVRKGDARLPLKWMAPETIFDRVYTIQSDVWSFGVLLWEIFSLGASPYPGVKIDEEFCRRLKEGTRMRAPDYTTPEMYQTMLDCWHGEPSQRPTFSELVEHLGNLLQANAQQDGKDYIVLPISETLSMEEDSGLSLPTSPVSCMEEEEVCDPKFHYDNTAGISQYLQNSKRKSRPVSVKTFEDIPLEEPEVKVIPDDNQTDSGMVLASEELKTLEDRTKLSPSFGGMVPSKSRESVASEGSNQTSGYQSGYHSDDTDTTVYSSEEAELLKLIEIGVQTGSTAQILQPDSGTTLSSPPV
T3 sequence (P11362 whole entry, change not shown): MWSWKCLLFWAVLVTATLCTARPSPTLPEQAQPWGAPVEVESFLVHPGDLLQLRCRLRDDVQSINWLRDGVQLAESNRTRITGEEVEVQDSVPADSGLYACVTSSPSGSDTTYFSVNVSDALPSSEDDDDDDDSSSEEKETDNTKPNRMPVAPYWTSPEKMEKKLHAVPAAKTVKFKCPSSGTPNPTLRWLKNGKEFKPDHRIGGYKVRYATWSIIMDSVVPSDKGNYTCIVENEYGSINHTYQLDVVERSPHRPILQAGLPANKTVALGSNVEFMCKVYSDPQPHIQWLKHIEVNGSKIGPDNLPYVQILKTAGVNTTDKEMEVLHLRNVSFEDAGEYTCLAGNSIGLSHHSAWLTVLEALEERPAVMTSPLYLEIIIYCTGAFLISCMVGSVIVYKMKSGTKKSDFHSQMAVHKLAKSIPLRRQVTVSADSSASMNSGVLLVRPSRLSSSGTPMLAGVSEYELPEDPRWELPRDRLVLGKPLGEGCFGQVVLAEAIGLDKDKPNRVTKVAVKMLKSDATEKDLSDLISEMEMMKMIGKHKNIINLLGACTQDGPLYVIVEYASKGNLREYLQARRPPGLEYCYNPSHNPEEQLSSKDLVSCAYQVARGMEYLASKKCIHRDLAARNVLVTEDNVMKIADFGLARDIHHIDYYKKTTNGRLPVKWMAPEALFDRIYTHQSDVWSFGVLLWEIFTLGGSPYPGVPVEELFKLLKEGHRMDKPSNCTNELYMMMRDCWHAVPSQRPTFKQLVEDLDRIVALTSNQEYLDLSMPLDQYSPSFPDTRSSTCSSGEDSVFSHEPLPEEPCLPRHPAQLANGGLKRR
T1 sequence (P22607 whole entry, change not shown): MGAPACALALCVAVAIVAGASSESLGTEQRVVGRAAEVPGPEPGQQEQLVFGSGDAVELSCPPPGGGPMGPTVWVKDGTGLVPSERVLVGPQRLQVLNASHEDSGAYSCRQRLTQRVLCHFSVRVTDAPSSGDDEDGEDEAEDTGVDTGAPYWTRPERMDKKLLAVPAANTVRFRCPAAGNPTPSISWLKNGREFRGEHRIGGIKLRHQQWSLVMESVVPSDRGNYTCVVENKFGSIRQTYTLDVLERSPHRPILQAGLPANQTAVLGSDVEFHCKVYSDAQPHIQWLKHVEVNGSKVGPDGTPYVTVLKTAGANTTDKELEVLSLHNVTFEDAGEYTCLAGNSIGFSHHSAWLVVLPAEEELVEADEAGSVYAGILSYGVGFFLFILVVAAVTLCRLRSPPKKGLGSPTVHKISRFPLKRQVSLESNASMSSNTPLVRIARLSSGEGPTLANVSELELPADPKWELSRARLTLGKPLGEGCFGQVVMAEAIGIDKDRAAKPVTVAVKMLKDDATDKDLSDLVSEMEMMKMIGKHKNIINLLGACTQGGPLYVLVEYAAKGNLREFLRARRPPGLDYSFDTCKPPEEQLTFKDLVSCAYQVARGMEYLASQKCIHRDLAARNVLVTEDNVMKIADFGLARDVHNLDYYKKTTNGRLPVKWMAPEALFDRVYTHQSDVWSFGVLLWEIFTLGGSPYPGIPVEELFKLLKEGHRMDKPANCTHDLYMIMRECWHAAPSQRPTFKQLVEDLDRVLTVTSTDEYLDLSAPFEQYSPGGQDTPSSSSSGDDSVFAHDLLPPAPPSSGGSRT

COc1cc(OC)c(F)c(N(Cc2ncc[nH]2)c2ccc3ncc(-c4cnn(C)c4)nc3n2)c1 (as salt: sulfate) [Compound 23]
melting point: 198 °C

COc1cc(OC)cc(N(Cc2ncc[nH]2)c2ccc3ncc(-c4cnn(C)c4)nc3n2)c1 (as salt: sulphate) [Compound 24]
melting point: 266 °C

COc1cc(OC)cc(N(Cc2ncc[nH]2)c2ccc3ncc(-c4cnn(C)c4)nc3n2)c1 (as salt: tartrate) [Compound 24]
melting point: 176 °C

CNCCN(c1ccc2ncc(-c3cnn(C)c3)nc2n1)c1c(F)c(OC)cc(OC)c1F (hydrate or solvate) [Compound 3]
melting point: 134 °C

COc1cc(OC)c(F)c(/N=c2\ccc3ncc(-c4cnn(C)c4)nc3n2CCCO)c1F (single isomer, unassigned) [Compound 17]
IC50 [1, 8]: > 10000 nM | BAF3-FGFR3 (MIN IL3) pIC50 [2]: 8.6 | melting point: 206 °C | IC50 [3, 8]: > 10000 nM | IC50 (KDR (h); [9]): 3.98 nM | IC50 (FGFR4 (h); [9]): 0.501 nM | IC50 (FGFR2 (h); [9]): 1.26 nM | IC50 (FGFR1 (h); [9]): 0.251 nM | IC50 (FGFR3 (h); [9]): 0.398 nM | BAF3-KDR (MIN IL3) pIC50 [4]: 6.8 | BAF3-FGFR1 (MIN IL3) pIC50 [5]: 8.7

CNCCn1/c(=N/c2c(F)c(OC)cc(OC)c2F)ccc2ncc(-c3cnn(C)c3)nc21 [Compound 4]
IC50 [1, 8]: > 10000 nM | BAF3-FGFR3 (MIN IL3) pIC50 [2]: 6.9 | melting point: 174 °C | IC50 [3, 8]: > 10000 nM | IC50 (KDR (h); [9]): 63.1 nM | IC50 (FGFR4 (h); [9]): 7.94 nM | IC50 (FGFR2 (h); [9]): 3.98 nM | IC50 (FGFR1 (h); [9]): 1.26 nM | IC50 (FGFR3 (h); [9]): 3.16 nM | BAF3-KDR (MIN IL3) pIC50 [4]: 5.4 | BAF3-FGFR1 (MIN IL3) pIC50 [5]: 7.3

COc1cc(OC)c(F)c(N(CC2CCC(=O)N2C)c2ccc3ncc(-c4cnn(C)c4)nc3n2)c1 (centres unmarked) [Compound 161]
BAF3-FGFR1 (PLUS IL3) pIC50 [1, 8]: <5 | BAF3-KDR (PLUS IL3) pIC50 [6, 8]: <5 | BAF3-FGFR3 (MIN IL3) pIC50 [2]: 6.08 | BAF3-FGFR3 (PLUS IL3) pIC50 [3, 8]: <5 | IC50 (KDR (h)): 126 nM | IC50 (FGFR4 (h)): 37.2 nM | IC50 (FGFR2 (h)): 10 nM | IC50 (FGFR1 (h)): 20 nM | IC50 (FGFR3 (h)): 6.92 nM | BAF3-FGFR4 pIC50 [7]: 5.78 | BAF3-KDR (MIN IL3) pIC50 [4]: <5 | BAF3-FGFR1 (MIN IL3) pIC50 [5]: 6.26

COc1cc(OC)c(F)c(N(CCS(C)(=O)=O)c2ccc3ncc(-c4cnn(C)c4)nc3n2)c1 [Compound 226]
IC50 [1]: > 10000 nM | IC50 [6]: > 10000 nM | BAF3-FGFR3 (MIN IL3) pIC50 [2]: ~7.54 | IC50 [3]: > 10000 nM | IC50 (KDR (h)): 26.3 nM | IC50 (FGFR4 (h)): 3.02 nM | IC50 (FGFR2 (h)): 2.19 nM | IC50 (FGFR1 (h)): 0.912 nM | IC50 (FGFR3 (h)): 1.12 nM | BAF3-FGFR4 pIC50 [7]: 6.60 | BAF3-KDR (MIN IL3) pIC50 [4]: 5.92 | BAF3-FGFR1 (MIN IL3) pIC50 [5]: 7.32

COc1cc(OC)c(F)c(N(CC(N)=O)c2ccc3ncc(-c4cnn(C)c4)nc3n2)c1 [Compound 239]
IC50 [1]: > 10000 nM | IC50 [6]: > 10000 nM | BAF3-FGFR3 (MIN IL3) pIC50 [2]: 6.51 | IC50 [3]: > 10000 nM | IC50 (KDR (h)): 148 nM | IC50 (FGFR4 (h)): 35.5 nM | IC50 (FGFR2 (h)): 7.94 nM | IC50 (FGFR1 (h)): 5.37 nM | IC50 (FGFR3 (h)): 5.25 nM | BAF3-FGFR4 pIC50 [7]: 5.87 | BAF3-KDR (MIN IL3) pIC50 [4]: 5.27 | BAF3-FGFR1 (MIN IL3) pIC50 [5]: 6.44

COc1cc(/N=c2\ccc3ncc(-c4cnn(C)c4)nc3n2CCNC(C)=O)c(F)c(OC)c1 [Compound 243]
IC50 [1]: > 10000 nM | IC50 [6]: > 10000 nM | BAF3-FGFR3 (MIN IL3) pIC50 [2]: ~8.13 | IC50 [3]: > 10000 nM | IC50 (KDR (h)): 15.1 nM | IC50 (FGFR4 (h)): 1.95 nM | IC50 (FGFR2 (h)): 1.62 nM | IC50 (FGFR1 (h)): 0.977 nM | IC50 (FGFR3 (h)): 1.32 nM | BAF3-FGFR4 pIC50 [7]: 7.14 | BAF3-KDR (MIN IL3) pIC50 [4]: 6.00 | BAF3-FGFR1 (MIN IL3) pIC50 [5]: 7.85

CCN(c1ccc2ncc(-c3cnn(C)c3)nc2n1)c1c(F)c(OC)cc(OC)c1F [Compound 256]
IC50 [1]: > 10000 nM | IC50 [6]: > 10000 nM | BAF3-FGFR3 (MIN IL3) pIC50 [2]: 8.16 | IC50 [3]: > 10000 nM | IC50 (KDR (h)): 8.71 nM | IC50 (FGFR4 (h)): 1.02 nM | IC50 (FGFR2 (h)): 1.66 nM | IC50 (FGFR1 (h)): 0.49 nM | IC50 (FGFR3 (h)): 0.708 nM | BAF3-FGFR4 pIC50 [7]: 7.36 | BAF3-KDR (MIN IL3) pIC50 [4]: 6.16 | BAF3-FGFR1 (MIN IL3) pIC50 [5]: 8.05

COc1cc(OC)c(F)c(N(Cc2nnc(NCCO)o2)c2ccc3ncc(-c4cnn(C)c4)nc3n2)c1 [Compound 283]
IC50 [1]: > 10000 nM | IC50 [6]: > 10000 nM | BAF3-FGFR3 (MIN IL3) pIC50 [2]: 5.26 | IC50 [3]: > 10000 nM | IC50 (KDR (h)): 105 nM | IC50 (FGFR4 (h)): 21.4 nM | IC50 (FGFR2 (h)): 5.13 nM | IC50 (FGFR1 (h)): ~7.08 nM | IC50 (FGFR3 (h)): 5.13 nM | BAF3-FGFR4 pIC50 [7]: <5 | BAF3-KDR (MIN IL3) pIC50 [4]: <5 | BAF3-FGFR1 (MIN IL3) pIC50 [5]: 5.18
